This is an account of results in patent publication US20260274851A1, “MODULATORS OF TRPML, THEIR COMPOSITIONS AND METHODS OF USE” (Caraway Therapeutics, Inc., priority 2023, published 2026).

One may read the EC50 as the concentration needed to bring the measured effect to its halfway point.

The target in one assay is Human TRPML1 (Homo sapiens, UniProt Q9GZU1). The assay is described as follows: Fluorescent TRPML1 assay (Fluo4 calcium fluorescence, HEK-293 Trex cells). The assay is classed as cell-based. Particulars: HEK-293 Trex cells expressing surface-directed hTRPML1, Fluo4 fluorescence. The method, then:
(§1) HEK-293 Trex cells were stably transfected with a construct consisting of the human coding sequence for TRPML1 cloned into the tet-inducible plasmid pCDNA5 T/O. Mutations were introduced into the TRPML1 sequence to facilitate expression on the cell surface (Silvia Vergarajauregui. Rosa Puertollano Traffic. 2006 March: 7(3): 337-353). Briefly, the cells are cultured in 150 mm round tissue culture dishes containing 20 mL of media. The day before the assay the cells are rinsed with DPBS—Ca —Mg and then treated briefly with Trypsin-EDTA. The Trypsin-EDTA is diluted with growth media, and cells are counted. 38×10^6 cells are re-plated into 150 mm round tissue culture dishes in media containing 0.5 g/mL doxycycline to induce expression of hTRPML1.
(§2) The day of the experiment cells are lifted from the plates as above and collected by centrifugation. The cells are then suspended in dye loading buffer consisting of Ringer's solution supplemented with 0.1% Pluronic Acid and 1 micromolar Fluo4-AM dye. Cells are loaded for ~60 minutes in the dark with occasional mixing. The cells are collected by centrifugation, the loading media aspirated, and the cells resuspended in 25 mL Ringer's solution and incubated ~60 minutes in the dark. The cells are again collected by centrifugation, rinsed in Ringer's Solution and resuspended to 0.2×10^6 cells/mL in modified Ringer's solution containing 10 mM calcium.
(§3) Compounds are dissolved to a concentration of 10 millimolar with DMSO. Compound plates are created by dispensing compounds into 384 well black wall clear bottom plates (Greiner 781091). Positive and negative controls are included on each plate. Typically, different amounts of each compound are tested ranging from 100 nanoMoles (20 micromolar final concentration) decreasing in half-log steps to 31 picoMoles (6 nanomolar final concentration). Each concentration is typically tested in triplicate.
(§4) 50 microliters of dye-loaded cells are dispensed into each well of the compound assay plate created above. The fluorescence in each well is then determined with an excitation wavelength of 480 nm and an emission wavelength of 540 nm using either a Molecular Devices SpectraMax multimode plate reader or a Hamamatsu FDSS/uCell plate imager.
(§5) The resulting fluorescence for each well is exported as an ascii file and loaded into our LIMS for analysis. The percent activity of each compound at each concentration is determined by comparison to the positive and negative control wells included in each plate.
(§6) EC50 values were calculated using a non-linear regression of Prism. In the table, “A” indicates an EC50 of less than 100 nM, “B” indicates an EC50 range from 100 nM to 500 nM; “C” indicates an EC50 range from 500 nM to 2 μM; and “D” indicates an EC50 greater than 2 μM.

The next assay deals with T1, Human TRPML3 (Homo sapiens, UniProt Q8TDD5).
T1 construct: expressed in transfected cells
T1 sequence (Q8TDD5 1-553): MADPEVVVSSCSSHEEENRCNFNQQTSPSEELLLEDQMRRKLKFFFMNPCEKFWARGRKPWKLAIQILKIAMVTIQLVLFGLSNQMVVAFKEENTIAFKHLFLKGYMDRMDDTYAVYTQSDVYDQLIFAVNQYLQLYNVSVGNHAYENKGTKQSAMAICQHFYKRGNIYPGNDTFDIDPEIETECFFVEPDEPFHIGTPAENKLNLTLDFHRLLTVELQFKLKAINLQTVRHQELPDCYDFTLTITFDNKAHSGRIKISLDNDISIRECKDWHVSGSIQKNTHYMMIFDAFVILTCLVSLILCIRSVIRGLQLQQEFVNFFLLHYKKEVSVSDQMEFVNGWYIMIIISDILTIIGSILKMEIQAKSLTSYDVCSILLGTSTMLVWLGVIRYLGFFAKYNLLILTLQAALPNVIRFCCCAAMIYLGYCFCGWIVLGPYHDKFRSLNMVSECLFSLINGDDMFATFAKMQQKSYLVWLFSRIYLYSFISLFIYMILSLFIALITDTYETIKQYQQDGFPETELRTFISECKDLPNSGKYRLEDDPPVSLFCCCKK
Put plainly: Fluorescent TRPML3 assay (as for TRPML1). The assay is classed as cell-based. The following applies: as TRPML1 assay with TRPML3 subtype. The procedure:
as §1, §2, §3, §4, §5
Assays for TRPML2 and TRPML3 were performed as above for TRPML1, by substituting the appropriate TRPML2 or TRPML3 subtype for the TRPML1.
as §6

For another assay, the target named is T2, Human TRPML2 (Homo sapiens, UniProt Q8IZK6).
T2 construct: expressed in transfected cells
T2 sequence (Q8IZK6 1-566): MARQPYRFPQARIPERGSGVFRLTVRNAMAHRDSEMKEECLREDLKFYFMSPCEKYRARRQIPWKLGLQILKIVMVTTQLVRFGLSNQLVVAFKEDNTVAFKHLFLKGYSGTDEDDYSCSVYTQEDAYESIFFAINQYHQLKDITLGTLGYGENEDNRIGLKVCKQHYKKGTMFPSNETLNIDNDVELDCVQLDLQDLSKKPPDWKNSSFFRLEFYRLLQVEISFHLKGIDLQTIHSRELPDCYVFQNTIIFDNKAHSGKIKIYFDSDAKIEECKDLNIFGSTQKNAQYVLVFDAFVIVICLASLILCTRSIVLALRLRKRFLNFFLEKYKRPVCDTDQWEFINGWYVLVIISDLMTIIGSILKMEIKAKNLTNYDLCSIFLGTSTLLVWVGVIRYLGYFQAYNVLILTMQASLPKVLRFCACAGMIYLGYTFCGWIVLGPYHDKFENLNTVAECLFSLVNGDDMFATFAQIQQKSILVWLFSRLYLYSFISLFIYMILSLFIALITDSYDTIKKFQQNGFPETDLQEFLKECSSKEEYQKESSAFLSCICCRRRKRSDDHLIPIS
Put plainly: Fluorescent TRPML2 assay (as for TRPML1). The following applies: as TRPML1 assay with TRPML2 subtype. The format is cell-based. The method, then:
as §1, with “38×10^6 cells are re-plated into 150 mm round tissue culture dishes in media containing 0.5 g/mL doxycycline to induce expression of hTRPML1.” left out
as §4
The resulting fluorescence for each well is exported as an ascii file and loaded into our LIMS for analysis. The percent activity of each compound at each concentration is determined by comparison to the positive and negative control wells included in each plate. […]
EC50 values were calculated using a non-linear regression of Prism. […]

The test system of another assay is TRPMLs. The following applies: high concentrations needed; background statement; cited from earlier work.

Some results are limits rather than exact numbers.

Chain of Human TRPML1 (Q9GZU1 whole entry L15A/L16A/L577A/L578A, form open): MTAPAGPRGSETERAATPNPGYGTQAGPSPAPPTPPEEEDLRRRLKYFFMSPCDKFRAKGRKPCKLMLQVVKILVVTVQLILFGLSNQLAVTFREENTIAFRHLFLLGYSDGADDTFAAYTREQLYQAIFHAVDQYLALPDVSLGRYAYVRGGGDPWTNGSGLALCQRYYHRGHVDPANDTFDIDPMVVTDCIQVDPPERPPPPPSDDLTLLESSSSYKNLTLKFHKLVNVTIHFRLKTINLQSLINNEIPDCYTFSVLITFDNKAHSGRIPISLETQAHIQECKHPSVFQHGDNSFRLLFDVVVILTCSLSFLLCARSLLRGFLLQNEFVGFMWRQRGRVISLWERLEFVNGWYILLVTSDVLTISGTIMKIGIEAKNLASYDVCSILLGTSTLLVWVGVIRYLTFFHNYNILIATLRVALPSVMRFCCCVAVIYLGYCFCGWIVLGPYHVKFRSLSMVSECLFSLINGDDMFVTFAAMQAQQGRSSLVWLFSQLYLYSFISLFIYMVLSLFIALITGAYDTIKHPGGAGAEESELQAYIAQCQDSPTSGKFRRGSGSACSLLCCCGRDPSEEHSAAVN

On to `C[C@@H]1CN(c2ncnc3c2c(-c2ccccc2)cn3-c2cccc(C#N)c2)[C@@H](C)CN1C(=O)C(C)(C)O` [Compound 101, 3-(4-((2S,5R)-4-(2-hydroxy-2-methylpropanoyl)-2,5-dimethylpiperazin-1-yl)-5-phenyl-7H-pyrrolo[2,3-d]pyrimidin-7-yl)benzonitrile], for which the values for the EC50 on Human TRPML1 and on Human TRPML3 were 100 to 500 nM and more than 2000 nM, respectively.
The corresponding values for `C[C@@H]1CN(c2ncnc3c2c(-c2ccccc2F)cn3-c2cccc(C#N)c2)[C@@H](C)CN1C(=O)C(C)(C)O` [Compound 102, 3-(5-(2-fluorophenyl)-4-((25,5R)-4-(2-hydroxy-2-methylpropanoyl)-2,5-dimethylpiperazin-1-yl)-7H-pyrrolo[2,3-d]pyrimidin-7-yl)benzonitrile] are 100 to 500 nM and more than 2000 nM.
As for `COC(C)(C)C(=O)N1C[C@H](C)N(c2ncnc3c2c(-c2ccccc2F)cn3-c2cccc(F)c2)C[C@H]1C` [Compound 103, 1-((2R,5S)-4-(5-(2-fluorophenyl)-7-(3-fluorophenyl)-7H-pyrrolo[2,3-d]pyrimidin-4-yl)-2,5-dimethylpiperazin-1-yl)-2-methoxy-2-methylpropan-1-one], the concentration giving a half-maximal response (EC50) at Human TRPML1 was less than 100 nM; at Human TRPML3 it was less than 100 nM; at Human TRPML2, 100 to 500 nM.
In the case of `C[C@@H]1CN(c2ncnc3c2c(-c2ccccc2F)cn3-c2cc(F)cc(F)c2)[C@@H](C)CN1C(=O)C(C)(C)O` [Compound 104, 1-((2R,5S)-4-(7-(3,5-difluorophenyl)-5-(2-fluorophenyl)-7H-pyrrolo[2,3-d]pyrimidin-4-yl)-2,5-dimethylpiperazin-1-yl)-2-hydroxy-2-methylpropan-1-one], the EC50 at Human TRPML1 is 500 to 2000 nM; at Human TRPML3, more than 2000 nM.
`C[C@@H]1CN(c2ncnc3c2c(-c2ccccc2F)cn3-c2cccc(Cl)c2)[C@@H](C)CN1C(=O)C(C)(C)O` [Compound 105, 1-((2R,5S)-4-(7-(3-chlorophenyl)-5-(2-fluorophenyl)-7H-pyrrolo[2,3-d]pyrimidin-4-yl)-2,5-dimethylpiperazin-1-yl)-2-hydroxy-2-methylpropan-1-one]: the EC50 at Human TRPML1 was in the range of 100 to 500 nM; at Human TRPML3 it was 500 to 2000 nM.
As to `CC1CC(C)(C)N(C(=O)CN2C(=O)c3ccccc3C2=O)c2ccccc21` (stereo not drawn) [ML-SA1], the “Concentration needed to effectively activate TRPMLs” value in the assay with TRPMLs is given as ~ 10 μM.
